The values below come from patent publication US20210070748A1, “INHIBITORS OF BRUTONS TYROSINE KINASE” (Pharmacyclics LLC, priority 2015, published 2021).

Holding throughout (format): biochemical
For one assay, the target named is T1, BTK-WT (Homo sapiens, UniProt Q06187).
T1 construct: purified from insect cells as a full-length construct containing an N-terminal 6X-His tag; His6 (N); made in house; host or cells: insect cells (baculovirus Sf21 in Method B)
In words: Btk in vitro inhibitory activity (one of Method A TR-FRET, Method B electrophoretic mobility shift, Method C radiometric filter binding). To be noted: E compounds, Table 17; read-out: IC50 BTK-WT. A general note: Mobility shift assays separate free from complexed probe on a gel.

In the next assay the target is T2, ITK (Homo sapiens, UniProt Q08881).
T2 sequence (Q08881 1-620): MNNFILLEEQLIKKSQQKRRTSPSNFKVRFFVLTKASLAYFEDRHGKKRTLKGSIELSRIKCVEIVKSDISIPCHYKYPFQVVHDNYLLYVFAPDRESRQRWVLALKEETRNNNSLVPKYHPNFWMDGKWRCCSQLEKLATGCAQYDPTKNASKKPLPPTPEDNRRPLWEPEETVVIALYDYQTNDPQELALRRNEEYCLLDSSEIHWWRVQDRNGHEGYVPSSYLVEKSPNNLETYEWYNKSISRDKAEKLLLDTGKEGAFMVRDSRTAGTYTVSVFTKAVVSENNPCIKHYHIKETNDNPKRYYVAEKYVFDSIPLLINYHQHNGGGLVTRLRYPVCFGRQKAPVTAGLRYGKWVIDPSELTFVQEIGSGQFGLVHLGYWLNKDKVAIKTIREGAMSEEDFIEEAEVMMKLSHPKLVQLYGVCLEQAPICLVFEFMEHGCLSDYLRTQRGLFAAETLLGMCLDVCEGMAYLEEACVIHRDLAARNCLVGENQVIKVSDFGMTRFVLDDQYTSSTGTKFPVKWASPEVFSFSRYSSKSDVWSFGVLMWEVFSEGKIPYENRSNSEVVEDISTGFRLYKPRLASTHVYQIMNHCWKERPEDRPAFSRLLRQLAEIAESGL
Description: Inhibition of a panel of kinases, in vitro HotSpot kinase assay: ITK. To be noted: E compounds, Table 17. The protocol:
(§1) The degree of inhibition of a panel of kinases is determined using the in vitro HotSpot kinase assay (purified enzymes, ^33P-ATP, an appropriate substrate and 1 μM ATP).

The target in a further assay is T3, TEC (Homo sapiens, UniProt P42680).
T3 sequence (P42680 1-631): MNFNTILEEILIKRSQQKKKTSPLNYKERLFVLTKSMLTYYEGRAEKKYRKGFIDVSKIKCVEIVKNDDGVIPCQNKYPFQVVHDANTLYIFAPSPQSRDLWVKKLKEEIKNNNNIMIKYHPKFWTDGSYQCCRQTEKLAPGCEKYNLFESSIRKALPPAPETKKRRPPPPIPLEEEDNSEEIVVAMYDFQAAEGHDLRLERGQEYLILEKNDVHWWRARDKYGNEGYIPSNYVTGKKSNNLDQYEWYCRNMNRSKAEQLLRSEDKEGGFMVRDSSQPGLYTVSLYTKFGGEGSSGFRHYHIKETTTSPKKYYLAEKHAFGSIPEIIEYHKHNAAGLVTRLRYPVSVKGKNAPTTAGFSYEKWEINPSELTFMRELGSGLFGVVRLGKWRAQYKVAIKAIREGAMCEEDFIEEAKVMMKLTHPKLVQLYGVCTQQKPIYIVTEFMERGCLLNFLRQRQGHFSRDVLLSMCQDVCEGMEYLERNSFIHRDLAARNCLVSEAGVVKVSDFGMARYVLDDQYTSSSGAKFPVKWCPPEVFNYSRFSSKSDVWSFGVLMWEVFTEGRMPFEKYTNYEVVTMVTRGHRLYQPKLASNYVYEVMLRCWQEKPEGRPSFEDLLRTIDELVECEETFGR
Description: Inhibition of a panel of kinases, in vitro HotSpot kinase assay: TEC. To be noted: E compounds, Table 17. The protocol: as §1

For orientation: IC50 means the point on the concentration scale where inhibition reaches its midpoint.

T1 sequence (Q06187 whole entry): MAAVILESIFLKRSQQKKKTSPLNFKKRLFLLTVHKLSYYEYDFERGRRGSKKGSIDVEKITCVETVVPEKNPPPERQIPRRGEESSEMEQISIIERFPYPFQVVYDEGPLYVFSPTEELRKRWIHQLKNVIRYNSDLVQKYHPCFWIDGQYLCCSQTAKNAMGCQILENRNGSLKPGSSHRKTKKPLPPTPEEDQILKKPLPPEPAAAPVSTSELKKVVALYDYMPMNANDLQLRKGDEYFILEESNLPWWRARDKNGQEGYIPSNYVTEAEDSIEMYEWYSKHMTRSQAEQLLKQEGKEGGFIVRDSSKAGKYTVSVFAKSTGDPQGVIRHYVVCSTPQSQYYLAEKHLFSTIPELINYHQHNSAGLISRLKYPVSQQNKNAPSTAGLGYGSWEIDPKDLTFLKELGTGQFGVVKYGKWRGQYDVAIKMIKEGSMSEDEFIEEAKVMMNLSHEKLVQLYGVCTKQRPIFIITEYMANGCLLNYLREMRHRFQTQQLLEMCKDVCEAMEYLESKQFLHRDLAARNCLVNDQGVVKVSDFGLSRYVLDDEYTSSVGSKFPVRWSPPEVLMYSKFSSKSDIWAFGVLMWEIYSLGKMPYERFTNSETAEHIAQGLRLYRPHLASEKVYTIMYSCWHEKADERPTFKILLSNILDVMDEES

For `C=CC(=O)N1CCC[C@@H](Nc2nnc(C(N)=O)c(Nc3ccc(-n4cncn4)cc3)n2)C1` [Example E-69, (R)-5-(4-(1H-1,2,4-triazol-1-yl)phenylamino)-3-(1-acryloylpiperidin-3-ylamino)-1,2,4-triazine-6-carboxamide], the IC50 is no more than 10 nM at BTK-WT, 10 to 100 nM at ITK and no more than 10 nM at TEC.

Regarding `C=CC(=O)N1CCC[C@@H](Nc2nnc(C(N)=O)c(Nc3ccc(C4CCN(C5CCCC5)CC4)cc3)n2)C1` [Example E-48, (R)-3-(1-acryloylpiperidin-3-ylamino)-5-(4-(1-cyclopentylpiperidin-4-yl)phenylamino)-1,2,4-triazine-6-carboxamide], the IC50 at BTK-WT, against ITK and against TEC was no more than 10 nM each time.

In the case of `C=CC(=O)N1CC[C@@H](N(C)c2cnc(C(N)=O)c(Nc3cccc(-n4nccn4)c3)n2)C1` [Example E-113, (R)-3-(3-(2H-1,2,3-triazol-2-yl)phenylamino)-5-((1-acryloylpyrrolidin-3-yl)(methyl)amino) pyrazine-2-carboxamide], the IC50 at BTK-WT was no more than 10 nM; on ITK, 10 to 100 nM; on TEC, no more than 10 nM.

On to `C=CC(=O)N1CC[C@@H](N(C)c2nnc(C(N)=O)c(Nc3ccc(C(O)(C(F)(F)F)C(F)(F)F)cc3)n2)C1` [Example E-16, (R)-3-((1-acryloylpyrrolidin-3-yl)(methyl)amino)-5-(4-(1,1,1,3,3,3-hexafluoro-2-hydroxypropan-2-yl)phenylamino)-1,2,4-triazine-6-carboxamide], for which the IC50 on BTK-WT, on ITK and against TEC was no more than 10 nM throughout.

With `C=CC(=O)N1CCC[C@@H](Nc2nnc(C(N)=O)c(Nc3ccc(C4=NCCN4C)cc3)n2)C1` [Example E-80, (R)-3-(1-acryloylpiperidin-3-ylamino)-5-(4-(1-methyl-4,5-dihydro-1H-imidazol-2-yl)phenylamino)-1,2,4-triazine-6-carboxamide], the IC50 at BTK-WT, at ITK and on TEC was no more than 10 nM each time.

Consider `C=CC(=O)N1CCC[C@@H](Nc2nnc(C(N)=O)c(Nc3ccc(Cl)cc3)n2)C1` [Example E-74, (R)-3-(1-acryloylpiperidin-3-ylamino)-5-(4-chlorophenylamino)-1,2,4-triazine-6-carboxamide], for which the results for the IC50 at BTK-WT, against ITK and at TEC were no more than 10 nM, 10 to 100 nM and no more than 10 nM, respectively.

As to `C=CC(=O)N1CC[C@@H](N(C)c2cnc(C(N)=O)c(Nc3cccc(-c4nccn4C)c3)n2)C1` [Example E-112, (R)-5-((1-acryloylpyrrolidin-3-yl)(methyl)amino)-3-(3-(1-methyl-1H-imidazol-2-yl)phenylamino)pyrazine-2-carboxamide], the IC50 is no more than 10 nM at BTK-WT, 10 to 100 nM against ITK and no more than 10 nM at TEC.

For `C=CC(=O)N1CCC[C@@H](Nc2nnc(C(N)=O)c(Nc3cccc(C#N)c3)n2)C1` [Example E-77, (R)-3-(1-acryloylpiperidin-3-ylamino)-5-(3-cyanophenylamino)-1,2,4-triazine-6-carboxamide], the half-maximal inhibitory concentration (IC50) is no more than 10 nM on BTK-WT, 10 to 100 nM at ITK and no more than 10 nM on TEC.

Turning to `C=CC(=O)N1CCC[C@@H](Nc2nnc(C(N)=O)c(Nc3cccc(C(=O)N(C)C)c3)n2)C1` [Example E-83, (R)-3-(1-acryloylpiperidin-3-ylamino)-5-(3-(dimethylcarbamoyl)phenylamino)-1,2,4-triazine-6-carboxamide], the results for the IC50 at BTK-WT, against ITK and on TEC were no more than 10 nM, 10 to 100 nM and no more than 10 nM, respectively.

On to `C=CC(=O)N1CCC[C@@H](Nc2nnc(C(N)=O)c(Nc3cccc(C(=O)NC)c3)n2)C1` [Example E-82, (R)-3-(1-acryloylpiperidin-3-ylamino)-5-(3-(methylcarbamoyl)phenylamino)-1,2,4-triazine-6-carboxamide], for which the IC50 is no more than 10 nM at BTK-WT, 10 to 100 nM at ITK and no more than 10 nM on TEC.

`C=CC(=O)N1CCC[C@@H](Nc2nnc(C(N)=O)c(Nc3ccc(C)cc3)n2)C1` [Example E-43, (R)-3-(1-acryloylpiperidin-3-ylamino)-5-(p-tolylamino)-1,2,4-triazine-6-carboxamide]: the IC50 at BTK-WT was no more than 10 nM; against ITK, 10 to 100 nM; on TEC, no more than 10 nM.

As to `C=CC(=O)N1CC[C@@H](N(C)c2cnc(C(N)=O)c(Nc3ccc(C(O)(C(F)(F)F)C(F)(F)F)cc3)n2)C1` [Example E-120, (R)-5-((1-acryloylpyrrolidin-3-yl)(methyl)amino)-3-(4-(1,1,1,3,3,3-hexafluoro-2-hydroxypropan-2-yl)phenylamino)pyrazine-2-carboxamide], the IC50 at BTK-WT, on ITK and at TEC was no more than 10 nM each time.

In the case of `C=CC(=O)N1CCC[C@@H](Nc2nnc(C(N)=O)c(Nc3ccc(C#N)cc3)n2)C1` [Example E-79, (R)-3-(1-acryloylpiperidin-3-ylamino)-5-(4-cyanophenylamino)-1,2,4-triazine-6-carboxamide], the IC50 is no more than 10 nM at BTK-WT, 10 to 100 nM against ITK and no more than 10 nM against TEC.

For the molecule `C=CC(=O)N1CC[C@@H](N(C)c2cnc(C(N)=O)c(Nc3ccc(N4CCN(C)CC4)cc3)n2)C1` [Example E-111, (R)-5-((1-acryloylpyrrolidin-3-yl)(methyl)amino)-3-(4-(4-methylpiperazin-1-yl)phenylamino)pyrazine-2-carboxamide], the IC50 on BTK-WT, at ITK and at TEC was no more than 10 nM each time.

For the molecule `Cc1cc(Nc2nc(N(C)[C@@H]3CCN(C(=O)c4ccc(C(O)(C(F)(F)F)C(F)(F)F)cc4)C3)nnc2C(N)=O)sn1` [Example E-13, (R)-3-((1-(4-(1,1,1,3,3,3-hexafluoro-2-hydroxypropan-2-yl)benzoyl)pyrrolidin-3-yl)(methyl)amino)-5-(3-methylisothiazol-5-ylamino)-1,2,4-triazine-6-carboxamide], the IC50 lay in the range of 10 to 100 nM on BTK-WT, 100 to 1000 nM against ITK and 100 to 1000 nM against TEC.

For `C=CC(=O)N1CCC[C@@H](Nc2nnc(C(N)=O)c(Nc3ccc4c(cnn4CC)c3)n2)C1` [Example E-66, (R)-3-(1-acryloylpiperidin-3-ylamino)-5-(1-ethyl-1H-indazol-5-ylamino)-1,2,4-triazine-6-carboxamide], the IC50 on BTK-WT, on ITK and against TEC was no more than 10 nM throughout.

`C=CC(=O)N1CCC[C@@H](Nc2nnc(C(N)=O)c(Nc3cncc(F)c3)n2)C1` [Example E-53, (R)-3-(1-acryloylpiperidin-3-ylamino)-5-(5-fluoropyridin-3-ylamino)-1,2,4-triazine-6-carboxamide]: the IC50 on BTK-WT is no more than 10 nM; on ITK, 100 to 1000 nM; at TEC it was no more than 10 nM.

For `C=CC(=O)N1CCC[C@@H](Nc2nnc(C(N)=O)c(Nc3ccc(Cn4cncn4)cc3)n2)C1` [Example E-52, (R)-5-(4-((1H-1,2,4-triazol-1-yl)methyl)phenyl-amino)-3-(1-acryloylpiperidin-3-ylamino)-1,2,4-triazine-6-carboxamide], the IC50 on BTK-WT, against ITK and against TEC was no more than 10 nM each time.
